biological target: T1, c-Met kinase (recombinant c-Met) (Homo sapiens, UniProt P08581); assay: In vitro kinase assay I (homogeneous time-resolved fluorescence tyrosine kinase assay); format: biochemical
T1 construct: 0.27 nM recombinant c-Met
Experimental: The kinase activities of c-Met are measured using a modified version of the homogeneous-time-resolved tyrosine kinase assay described by Park et al. (1999, Anal. Biochem. 269:94-104).
The procedure for determining the potency of a compound to inhibit c-Met kinase comprises the following steps: • 1. Prepare 3-fold serial diluted compound solutions in 100% dimethyl sulfoxide (DMSO) at 20× of the desired final concentrations in a 384-well plate. • 2. Prepare a master reaction mix containing 6.67 mM MgCl2, 133.3 mM NaCl, 66.7 mM Tris-HCl (pH 7.4), 0.13 mg/ml BSA, 2.67 mM dithiothreitol, 0.27 nM recombinant c-Met and 666.7 nM biotinylated synthetic peptide substrate (biotin-ahx-EQEDEPEGDYFEWLE-CONH2) (SEQ.ID.NO.:1). • 3. In a black assay plate, add 1.5 μl of compound solution (or DMSO) and 22.5 μl of master reaction mix per well. Initiate the kinase reaction by adding 6 μl of 0.25 mM MgATP per well. Allow the reactions to proceed for 60 min at room temperature. The final conditions for the reaction are 0.2 nM c-Met, 0.5 μM substrate, 50 μM MgATP, 5 mM MgCl2, 100 mM NaCl, 2 mM DTT, 0.1 mg/ml BSA, 50 mM Tris (pH 7.4) and 5% DMSO. • 4. Stop the kinase reaction with 30 μl of Stop/Detection buffer containing 10 mM EDTA, 25 mM HEPES, 0.1% TRITON X-100, 0.750 nM Eu-chelate labeled anti-phosphotyrosine antibody PY20 (cat. #AD0067, PerkinElmer) and 50 μg/ml Streptavidin-allophycocyanin conjugate (cat. #PJ25S, Prozyme). • 5. Read HTRF signals on a Victor reader (PerkinElmer) in HTRF mode after 60-min incubation at room temperature in the dark. • 6. IC50 is determined by fitting the observed relationship between compound concentration and HTRF signal with a 4-parameter logistic equation. II. GTL-16 pY1349 Cell-Based Assay

T1 sequence (P08581 25-1390): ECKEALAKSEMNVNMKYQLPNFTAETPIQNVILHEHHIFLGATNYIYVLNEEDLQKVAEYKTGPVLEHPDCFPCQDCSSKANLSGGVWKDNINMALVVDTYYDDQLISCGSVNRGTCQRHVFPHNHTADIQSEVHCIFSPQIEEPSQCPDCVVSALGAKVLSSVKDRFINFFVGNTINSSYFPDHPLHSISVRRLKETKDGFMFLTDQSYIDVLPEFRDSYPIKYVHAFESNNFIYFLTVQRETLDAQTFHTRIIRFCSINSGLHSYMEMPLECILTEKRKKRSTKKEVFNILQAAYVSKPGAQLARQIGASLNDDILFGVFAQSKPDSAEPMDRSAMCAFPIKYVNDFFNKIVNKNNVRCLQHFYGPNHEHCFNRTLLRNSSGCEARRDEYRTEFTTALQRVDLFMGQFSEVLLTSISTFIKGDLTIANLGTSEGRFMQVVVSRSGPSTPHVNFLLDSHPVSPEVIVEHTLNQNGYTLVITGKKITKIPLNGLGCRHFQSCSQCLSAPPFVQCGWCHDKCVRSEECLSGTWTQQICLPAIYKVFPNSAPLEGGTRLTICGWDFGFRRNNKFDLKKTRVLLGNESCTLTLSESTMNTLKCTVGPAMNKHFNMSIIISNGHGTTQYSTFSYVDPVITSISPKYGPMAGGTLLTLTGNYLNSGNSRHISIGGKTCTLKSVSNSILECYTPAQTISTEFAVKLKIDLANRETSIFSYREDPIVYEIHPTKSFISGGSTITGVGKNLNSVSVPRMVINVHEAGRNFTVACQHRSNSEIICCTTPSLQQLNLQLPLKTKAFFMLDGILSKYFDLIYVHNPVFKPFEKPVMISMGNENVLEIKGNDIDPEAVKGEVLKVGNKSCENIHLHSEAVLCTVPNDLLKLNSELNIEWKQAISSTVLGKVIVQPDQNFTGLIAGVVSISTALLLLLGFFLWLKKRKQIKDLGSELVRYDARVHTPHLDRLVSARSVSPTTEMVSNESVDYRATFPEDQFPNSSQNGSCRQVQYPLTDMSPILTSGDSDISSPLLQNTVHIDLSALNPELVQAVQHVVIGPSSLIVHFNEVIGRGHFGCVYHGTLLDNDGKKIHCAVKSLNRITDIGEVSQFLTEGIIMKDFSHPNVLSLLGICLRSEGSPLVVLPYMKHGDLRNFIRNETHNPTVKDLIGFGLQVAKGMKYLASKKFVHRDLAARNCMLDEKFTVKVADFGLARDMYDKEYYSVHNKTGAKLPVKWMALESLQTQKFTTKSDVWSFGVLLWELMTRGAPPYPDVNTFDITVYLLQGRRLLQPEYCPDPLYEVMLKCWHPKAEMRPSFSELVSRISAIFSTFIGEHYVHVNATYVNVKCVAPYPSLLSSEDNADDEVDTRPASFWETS

Row | IC50 | SMILES
1 | < 100 nM | Cn1cc(-n2ccc(=O)c(Cc3cccc(-c4ncc(N5CCC6CCCCC6C5)cn4)c3)n2)cn1 (mixture of isomers) [Example 443, 1-(1-methyl-1H-pyrazol-4-yl)-3-{3-[5-(octahydroiso-quinolin-2(1H)-yl)pyrimidin-2-yl]benzyl}pyridazin-4(1H)-one]
2 | < 100 nM | CC1CC1COC(=O)Nc1cccc(Cc2nn(-c3cnn(C)c3)ccc2=O)c1 (mixture of isomers) [Example 574, (2-methylcyclopropyl)methyl (3-{[1-(1-methyl-1H-pyrazol-4-yl)-4-oxo-1,4-dihydropyridazin-3-yl]methyl}phenyl)carbamate]
3 | < 100 nM | Cn1cc(-n2ccc(=O)c(Cc3ccc4ncc(OCC5CCOC5)cc4c3)n2)cn1 (racemic) [Example 64, rac-1-(1-methyl-1H-pyrazol-4-yl)-3-{[3-(tetrahydrofuran-3-ylmethoxy)quinolin-6-yl]methyl}pyridazin-4(1H)-one]
4 | < 100 nM | Cn1cc(-n2ccc(=O)c(Cc3cccc(-c4ncn(CC5CCOC5)n4)c3)n2)cn1 (racemic) [Example 79, rac-1-(1-methyl-1H-pyrazol-4-yl)-3-{3-[1-(tetrahydrofuran-3-ylmethyl)-1H-1,2,4-triazol-3-yl]benzyl}pyridazin-4(1H)-one]
5 | < 100 nM | CCOC(=O)Nc1cccc(Cc2nn(-c3cnn(C4CCOC4)c3)ccc2=O)c1 (racemic) [Example 97, rac-ethyl [3-({4-oxo-1-[1-(tetrahydrofuran-3-yl)-1H-pyrazol-4-yl]-1,4-dihydropyridazin-3-yl}methyl)phenyl]carbamate]
6 | < 100 nM | CCCOC(=O)Nc1cccc(Cc2nn(-c3cnn(C4CCOC4)c3)ccc2=O)c1 (racemic) [Example 98, rac-propyl [3-({4-oxo-1-[1-(tetrahydrofuran-3-yl)-1H-pyrazol-4-yl]-1,4-dihydropyridazin-3-yl}methyl)phenyl]carbamate]
7 | < 100 nM | CC(C)COC(=O)Nc1cccc(Cc2nn(-c3cnn(C4CCOC4)c3)ccc2=O)c1 (racemic) [Example 99, rac-2-methylpropyl [3-({4-oxo-1-[1-(tetrahydrofuran-3-yl)-1H-pyrazol-4-yl]-1,4-dihydropyridazin-3-yl}methyl)phenyl]carbamate]
8 | < 100 nM | N#Cc1cncc(-n2ccc(=O)c(Cc3cccc(NC(=O)OCC4CCOC4)c3)n2)c1 (racemic) [Example 130, rac-tetrahydrofuran-3-ylmethyl (3-{[1-(5-cyanopyridin-3-yl)-4-oxo-1,4-dihydropyridazin-3-yl]methyl}phenyl)carbamate]
9 | < 100 nM | N#Cc1cc(F)cc(-n2ccc(=O)c(Cc3cccc(NC(=O)OCC4CCOC4)c3)n2)c1 (racemic) [Example 131, rac-tetrahydrofuran-3-ylmethyl (3-{[1-(3-cyano-5-fluorophenyl)-4-oxo-1,4-dihydropyridazin-3-yl]methyl}phenyl)carbamate]
10 | < 100 nM | N#Cc1ccc(-n2ccc(=O)c(Cc3cccc(NC(=O)OCC4CCOC4)c3)n2)cc1 (racemic) [Example 139, rac-tetrahydrofuran-3-ylmethyl (3-{[1-(4-cyanophenyl)-4-oxo-1,4-dihydropyridazin-3-yl]methyl}phenyl)carbamate]
11 | < 100 nM | N#Cc1cc(Cl)cc(-n2ccc(=O)c(Cc3cccc(NC(=O)OCC4CCOC4)c3)n2)c1 (racemic) [Example 141, rac-tetrahydrofuran-3-ylmethyl (3-{[1-(3-chloro-5-cyanophenyl)-4-oxo-1,4-dihydropyridazin-3-yl]methyl}phenyl)carbamate]
12 | 100 to 1000 nM | COC(C)c1cnc(-c2cccc(Cc3nn(-c4cnn(C)c4)ccc3=O)c2)nc1 (racemic) [Example 166, rac-3-{3-[5-(1-methoxyethyl)pyrimidin-2-yl]benzyl}-1-(1-methyl-1H-pyrazol-4-yl)pyridazin-4(1H)-one]
13 | < 100 nM | Cn1cc(-n2ccc(=O)c(Cc3cccc(-c4ncc(C5C=CCO5)cn4)c3)n2)cn1 (racemic) [Example 174, rac-3-{3-[5-(2,5-Dihydrofuran-2-yl)pyrimidin-2-yl]benzyl}-1-(1-methyl-1H-pyrazol-4-yl)pyridazin-4(1H)-one]
14 | < 100 nM | Cn1cc(-n2ccc(=O)c(Cc3cccc(-c4ncc(C5CCCO5)cn4)c3)n2)cn1 (racemic) [Example 198, rac-1-(1-Methyl-1H-pyrazol-4-yl)-3-{3-[5-(tetrahydrofuran-2-yl)pyrimidin-2-yl]benzyl}pyridazin-4(1H)-one]
15 | < 100 nM | CCOCc1cnc(-c2cccc(C(C)c3nn(-c4cnn(C)c4)ccc3=O)c2)nc1 (racemic) [Example 221, rac-3-(1-{3-[5-(ethoxymethyl)pyrimidin-2-yl]phenyl}ethyl)-1-(1-methyl-1H-pyrazol-4-yl)pyridazin-4(1H)-one]
16 | < 100 nM | CCOc1cnc(-c2cccc(C(C)c3nn(-c4cccc(C#N)c4)ccc3=O)c2)nc1 (racemic) [Example 224, rac-3-[3-{1-[3-(5-ethoxypyrimidin-2-yl)phenyl]ethyl}-4-oxopyridazin-1(4H)-yl]benzonitrile]
17 | < 100 nM | CCC(c1cccc(-c2ncc(OC)cn2)c1)c1nn(-c2cnn(C)c2)ccc1=O (racemic) [Example 225, rac-3-{1-[3-(5-methoxypyrimidin-2-yl)phenyl]propyl}-1-(1-methyl-1H-pyrazol-4-yl)pyridazin-4(1H)-one]
18 | 1000 to 3000 nM | COCCOc1cnc(-c2cccc(C(CCO)c3nn(-c4cnn(C)c4)ccc3=O)c2)nc1 (racemic) [Example 253, rac-3-(3-Hydroxy-1-{3-[5-(2-methoxyethoxy)pyrimidin-2-yl]phenyl}propyl)-1-(1-methyl-1H-pyrazol-4-yl)pyridazin-4(1H)-one]
19 | 1000 to 3000 nM | COc1cnc(-c2cccc(C(CO)c3nn(-c4cnn(C)c4)ccc3=O)c2)nc1 (racemic) [Example 254, rac-3-{2-Hydroxy-1-[3-(5-methoxypyrimidin-2-yl)phenyl]ethyl}-1-(1-methyl-1H-pyrazol-4-yl)pyridazin-4(1H)-one]
20 | < 100 nM | Cn1cc(-n2ccc(=O)c(Cc3cccc(-c4ncc(OCC5CCCO5)cn4)c3)n2)cn1 (racemic) [Example 260, rac-1-(1-methyl-1H-pyrazol-4-yl)-3-{3-[5-(tetrahydrofuran-2-ylmethoxy)pyrimidin-2-yl]benzyl}pyridazin-4(1H)-one]
21 | < 100 nM | Cn1cc(-n2ccc(=O)c(Cc3cccc(-c4ncc(OCC5CCOC5)cn4)c3)n2)cn1 (racemic) [Example 266, rac-1-(1-methyl-1H-pyrazol-4-yl)-3-{3-[5-(tetrahydrofuran-3-ylmethoxy)pyrimidin-2-yl]benzyl}pyridazin-4(1H)-one]
22 | < 100 nM | Cn1cc(-n2ccc(=O)c(Cc3cccc(-c4ncc(OCC5CCOC(C)(C)C5)cn4)c3)n2)cn1 (racemic) [Example 269, rac-3-(3-{5-[(2,2-dimethyltetrahydro-2H-pyran-4-yl)methoxy]pyrimidin-2-yl}benzyl)-1-(1-methyl-1H-pyrazol-4-yl)pyridazin-4(1H)-one]
23 | < 100 nM | Cn1cc(-n2ccc(=O)c(Cc3cccc(-c4ncc(OC5CCOC5)cn4)c3)n2)cn1 (racemic) [Example 276, rac-1-(1-methyl-1H-pyrazol-4-yl)-3-{3-[5-(tetrahydrofuran-3-yloxy)pyrimidin-2-yl]benzyl}pyridazin-4(1H)-one]
24 | < 100 nM | CCn1cc(-n2ccc(=O)c(Cc3cccc(-c4ncc(OCC5CCO5)cn4)c3)n2)cn1 (racemic) [Example 308, rac-1-(1-ethyl-1H-pyrazol-4-yl)-3-{3-[5-(oxetan-2-ylmethoxy)pyrimidin-2-yl]benzyl}pyridazin-4(1H)-one]
25 | < 100 nM | CCn1cc(-n2ccc(=O)c(Cc3cccc(-c4ncc(OC5CCOC5)cn4)c3)n2)cn1 (racemic) [Example 309, rac-1-(1-ethyl-1H-pyrazol-4-yl)-3-{3-[5-(tetrahydrofuran-3-yloxy)pyrimidin-2-yl]benzyl}pyridazin-4(1H)-one]
26 | < 100 nM | CCn1cc(-n2ccc(=O)c(Cc3cccc(-c4ncc(OCC5CCCO5)cn4)c3)n2)cn1 (racemic) [Example 310, rac-1-(1-ethyl-1H-pyrazol-4-yl)-3-{3-[5-(tetrahydrofaran-2-ylmethoxy)pyrimidin-2-yl]benzyl}pyridazin-4(1H)-one]
27 | < 100 nM | CCn1cc(-n2ccc(=O)c(Cc3cccc(-c4ncc(OCC5COCCO5)cn4)c3)n2)cn1 (racemic) [Example 311, rac-3-{3-[5-(1,4-dioxan-2-ylmethoxy)pyrimidin-2-yl]benzyl}-1-(1-ethyl-1H-pyrazol-4-yl)pyridazin-4(1H)-one]
28 | < 100 nM | O=c1ccn(-c2ccc(F)c(F)c2)nc1Cc1cccc(-c2ncc(OC3CCOC3)cn2)c1 (racemic) [Example 327, rac-1-(3,4-difluorophenyl)-3-{3-[5-(tetrahydrofuran-3-yloxy)pyrimidin-2-yl]benzyl}pyridazin-4(1H)-one]
